This is an account of results in US11819549B2, “Pharmaceutical formulation comprising ciclesonide” (Boehringer Ingelheim Vetmedica GmbH, priority 2012, dated 2023).

Series [1] is described as follows: chemical stability of ciclesonide in ethanolic formulation as a function of pHapp. Conditions: pHapp range of 4.0 to 4.6, no buffer. The class given is physicochemical. From the text:
To identify an appropriate pHapp in an ethanolic liquid formulation comprising ciclesonide is a challenge. On the one hand side the stability of ciclesonide is better at higher (more neutral) pH values. However, on the other hand, the pH should not be too high since at low [H^+] values already small amounts of contaminants and decomposition products can cause a relatively large change in pHapp. Furthermore, the use of a buffer for inhalable formulations is undesirable due to the administration of the buffer constituents to the lungs and the possibility of the buffer constituents forming a residue in the inhaler which may affect the spray characteristics of the aerosol. […] The addition of buffer is not necessary to create the advantageous formulation of the present invention.

Series [2] can be described thus: buffering capacity of ciclesonide in the ethanolic solution. The class given is physicochemical. Conditions: ethanol/water solution acidified with HCl 0.1 M. On the procedure: More HCl is added than needed to achieve […] in demineralized water alone due to the buffering capacity of ciclesonide.
The conditions of series [3]: taken orally; cited from earlier work.

Consider `CC(C)C(=O)OCC(=O)C12OC(C3CCCCC3)OC1CC1C3CCC4=CC(=O)C=CC4(C)C3C(O)CC12C` [ciclesonide, (11β,16α)-16,17-[[(R)-Cyclohexylmethylene]bis(oxy)]-11-hydroxy-21-(2-methyl-1-oxopropoxy)pregna-1,4-diene-3,20-dione], for which the “chemical stability of ciclesonide” value in series [1] is reported as “chemically stable”. Moreover, the buffering capacity in series [2] is −3.6 μmol/g ciclesonide.
As to dexamethasone, in series [3], the “potency relative to cortisol” value is given as 27 times and the “potency relative to prednisone” value is listed as 7 times.
